Measured values: patent US5356916A, “1,2,4-oxadiazole derivatives having monoamine oxidase B enzyme-inhibitory activity” (Wakamoto Pharmaceutical Co., Ltd., priority 1991, dated 1994)
Read-outs that look alike come from different tables or passages of the source.

What was measured:
MAO-A = target: T1, MAO-A (Rattus norvegicus, UniProt P21396); assay: In vitro inhibition of monoamine oxidase A (oxygen electrode, rat liver mitochondria, substrate serotonin); type: biochemical
T1 construct: mitochondria prepared from the liver of rats; from tissue; host or cells: rat liver mitochondria
T1 sequence (P21396 1-526): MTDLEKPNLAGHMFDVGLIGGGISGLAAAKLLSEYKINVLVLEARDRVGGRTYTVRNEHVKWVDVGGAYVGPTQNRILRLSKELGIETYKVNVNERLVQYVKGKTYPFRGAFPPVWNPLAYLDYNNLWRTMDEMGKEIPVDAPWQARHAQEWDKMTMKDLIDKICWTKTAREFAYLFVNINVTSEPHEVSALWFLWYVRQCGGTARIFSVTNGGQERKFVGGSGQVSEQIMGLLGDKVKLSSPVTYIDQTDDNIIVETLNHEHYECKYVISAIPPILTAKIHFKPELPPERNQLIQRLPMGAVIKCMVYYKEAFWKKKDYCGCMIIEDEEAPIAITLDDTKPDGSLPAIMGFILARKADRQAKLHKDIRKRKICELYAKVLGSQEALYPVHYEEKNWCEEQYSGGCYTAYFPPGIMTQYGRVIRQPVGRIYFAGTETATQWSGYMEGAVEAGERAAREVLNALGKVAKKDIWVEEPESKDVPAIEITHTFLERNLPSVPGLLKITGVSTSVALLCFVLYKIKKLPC
Description: (§1) The MAO-inhibitory activity of the compounds of the present invention was determined according to an MAO-inhibitory activity determining method using the oxygen electrode disclosed in K. F. Tipton et al., Biochem. J., 1968,108, pp. 95-99.
(§2) A potassium phosphate buffer solution of mitochondria prepared from the liver of rats was preincubated at 37° C. with or without a compound of the present invention and then a substrate was added to the mixture to thus initiate the reaction at that temperature while the dissolved oxygen-consuming reaction due to MAO activity in the reaction solution was monitored by the oxygen electrode. In this respect, the substrates used were serotonin (5-HT) for the MAO-A activity determination and benzylamine (BA) for the MAO-B activity determination. The MAO-inhibitory activity was evaluated in terms of an IC5.sbsb.0 value which is the concentration of a compound tested required for reducing the rate of oxygen-consuming reaction performed in the presence of the compound to 50% of that of the reaction performed in the absence of the compound.

MAO-B = target: T2, MAO-B (Rattus norvegicus, UniProt P19643); assay: In vitro inhibition of monoamine oxidase B (oxygen electrode, rat liver mitochondria, substrate benzylamine); type: biochemical; settings: for MAO-A/MAO-B: ratio of IC50 values MAO-A/MAO-B
T2 construct: mitochondria prepared from the liver of rats; from tissue; host or cells: rat liver mitochondria
T2 sequence (P19643 1-520): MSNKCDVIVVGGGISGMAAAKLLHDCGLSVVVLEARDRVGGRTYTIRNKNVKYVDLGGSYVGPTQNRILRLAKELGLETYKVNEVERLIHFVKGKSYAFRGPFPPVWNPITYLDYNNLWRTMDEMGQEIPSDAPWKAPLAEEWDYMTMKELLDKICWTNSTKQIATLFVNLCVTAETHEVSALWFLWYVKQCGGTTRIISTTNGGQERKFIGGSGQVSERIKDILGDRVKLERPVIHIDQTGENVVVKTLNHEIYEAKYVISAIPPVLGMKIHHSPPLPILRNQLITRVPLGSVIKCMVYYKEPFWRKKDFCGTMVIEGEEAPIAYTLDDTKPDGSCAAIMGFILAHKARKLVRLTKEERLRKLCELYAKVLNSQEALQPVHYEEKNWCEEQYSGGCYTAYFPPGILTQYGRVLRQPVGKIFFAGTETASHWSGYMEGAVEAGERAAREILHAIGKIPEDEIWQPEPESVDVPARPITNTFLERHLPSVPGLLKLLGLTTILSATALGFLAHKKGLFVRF
Description: as §1, §2

[1] = rat liver mitochondria, 37° C., preincubated, substrate serotonin (5-HT), read-out: IC50 MAO-A
[2] = rat liver mitochondria, 37° C., preincubated, substrate benzylamine (BA), read-out: IC50 MAO-B

Compound	IC50 (MAO-A; [1])	IC50 (MAO-B; [2])	MAO-A/MAO-B (MAO-B)	IC50 (MAO-A)	IC50 (MAO-B)
CCc1nc(-c2ccc(OCCCn3ccnc3)cc2)no1 [Example 1, 3-[4-[3-(1H-imidazol-1-yl)propoxy]phenyl]-5-ethyl-1,2,4-oxadiazole]	200 µM	0.3 µM	670		
CCCc1nc(-c2ccc(OCCCn3ccnc3)cc2)no1 [Example 3, 3-[4-[3-(1H-imidazol-1-yl)propoxy]phenyl]-5-propyl-1,2,4-oxadiazole]	200 µM	1 µM	200		
c1cn(CCCOc2ccc(-c3noc(C4CC4)n3)cc2)cn1 [Example 4, 3-[4-[3-(1H-imidazol-1-yl)propoxy]phenyl]-5-cyclo-propyl-1,2,4-oxadiazole]	100 µM	2 µM	50		
CCc1nc(-c2ccc(OCCCn3ccnc3C)cc2)no1 [Example 6, 3-[4-[3-(2-methyl-1H-imidazol-1-yl)propoxy]phenyl]-5-ethyl-1,2,4-oxadiazole]	150 µM	150 µM	1		
CCCN(CCC)CCCOc1ccc(-c2noc(-c3ccccc3)n2)cc1 [Example 9, 3-[4-(3-dipropylaminopropoxy)phenyl]-5-phenyl-1,2,4-oxadiazole]	100 µM	50 µM	2		
CCc1nc(-c2ccc(OCCCN3CCCCC3)cc2)no1 [Example 12, 3-[4-(3-piperidinopropoxy)phenyl]5-ethyl-1,2,4-oxadiazole]	100 µM	100 µM	1		
CCc1nc(-c2ccc(OCCCc3cccnc3)cc2)no1 [Example 14, 3-[4-[3-(3-pyridyl)propoxy]phenyl]-5-ethyl-1,2,4-oxadiazole]	100 µM	20 µM	5		
CCc1nc(-c2ccc(OCCCc3ccccc3)cc2)no1 [Example 15, 3-[4-(3-phenylpropoxy)phenyl]-5-ethyl-1,2,4-oxadiazole]	200 µM	200 µM	1		
CCc1nc(-c2ccc(OCCn3ccnc3)cc2)no1 [Example 18, 3-[4-[2-(1H-imidazol-1-yl)ethoxy]phenyl]-5-ethyl-1,2,4-oxadiazole]	90 µM	60 µM	1.5		
CCc1nc(-c2ccc(OCc3ccccc3)cc2)no1 [Example 19, 3-(4-benzyloxy)phenyl-5-ethyl-1,2,4-oxadiazole]	100 µM	8 µM	13		
ClC(Cl)(Cl)c1nc(-c2ccc(OCc3ccccc3)cc2)no1 [Example 20, 3-(4-benzyloxy)phenyl-5-trichloromethyl-1,2,4-oxadiazole]			11	100 µM	9.5 µM
FC(F)(F)c1nc(-c2ccc(OCCCn3ccnc3)cc2)no1 [Example 21, 3-[4-[3-(1H-imidazol-1-yl)propoxy]phenyl]-5-trifluoromethyl-1,2,4-oxadiazole]	200 µM	0.03 µM	6700		
FC(F)(F)C(F)(F)C(F)(F)c1nc(-c2ccc(OCCCn3ccnc3)cc2)no1 [Example 23, 3-[4-[3-(1H-imidazol-1-yl)propoxy]phenyl]-5-hepta-fluoropropyl-1,2,4-oxadiazole]			21	100 µM	4.7 µM
Cc1nc(-c2ccc(OCCCn3ccnc3)cc2)no1 [Example 24, 3-[4-[3-(1H-imidazol-1-yl)propoxy]phenyl]-5-methyl-1,2,4-oxadiazole]	550 µM	2.4 µM	230		

More lines, in order of falling IC50 (MAO-A; [1]), values ahead:

IC50 (MAO-A; [1])	IC50 (MAO-B; [2])	MAO-A/MAO-B (MAO-B)	Compound	IC50 (MAO-A)	IC50 (MAO-B)
200 µM	0.03 µM	6700	ClC(Cl)(Cl)c1nc(-c2ccc(OCCCn3ccnc3)cc2)no1 [Example 2, 3-[4-[3-(1H-imidazol-1-yl)propoxy]phenyl]-5-tri chloromethyl-1,2,4-oxadiazole]		
200 µM	100 µM	2	CCc1nc(-c2ccc(OCCCN3CCOCC3)cc2)no1 [Example 11, 3-[4-(3-morpholinopropoxy)phenyl]-5-ethyl-1,2,4-oxadiazole]		
200 µM	3 µM	67	Cc1nc(-c2ccc(OCc3cccc(Cl)c3)cc2)no1 [Example 31, 3-[4-(3-chlorobenzyloxy)phenyl]-5-methyl-1,2,4-oxadiazole]		
160 µM	25 µM	6.4	Cc1nc(-c2ccc(OCc3ccncc3)cc2)no1 [Example 27, 3-[4-(4-pyridylmethyloxy)phenyl]-5-methyl-1,2,4-oxadiazole]		
150 µM	160 µM	0.9	CCc1nc(-c2ccc(OCCCn3cnc4ccccc43)cc2)no1 [Example 7, 3-[4-[3-(1H-benzimidazol-1-yl)propoxy]phenyl]-5-ethyl-1,2,4-oxadiazole]		
110 µM	22 µM	5	Cc1nc(-c2ccc(OCCCc3ccccc3)cc2)no1 [Example 29, 3-[4-(3-phenylpropoxy)phenyl]-5-methyl-1,2,4-oxadiazole]		
100 µM	50 µM	2	c1ccc(-c2nc(-c3ccc(OCCCn4ccnc4)cc3)no2)cc1 [Example 5, 3-[4-[3-(1H-imidazol-1-yl)propoxy]phenyl]-5-phenyl-1,2,4-oxadiazole]		
100 µM	25 µM	4	CCc1nc(-c2ccc(OCCCN(CC)CC)cc2)no1 [Example 8, 3-[4-(3-diethylaminopropoxy)phenyl]-5-ethyl-1,2,4-oxadiazole]		
100 µM	100 µM	1	CCc1nc(-c2ccc(OCCCN3C(=O)c4ccccc4C3=O)cc2)no1 [Example 10, 3-[4-(3-phthalimidopropoxy)phenyl]-5-ethyl-1,2,4-oxadiazole]		
100 µM	100 µM	1	CCc1nc(-c2ccc(OCCCN3CCN(C)CC3)cc2)no1 [Example 13, 3-[4-[3-(4-methylpiperazinyl)propoxy]phenyl]-5-ethyl-1,2,4-oxadiazole]		
100 µM	100 µM	1	O=C1CCCN1CCCOc1ccc(-c2noc(-c3ccccc3)n2)cc1 [Example 17, 3-[4-[3-(2-oxopyrrolidin-1-yl)propoxy]phenyl]-5-phenyl-1,2,4-oxadiazole]		
100 µM	0.09 µM	1100	FC(F)(F)C(F)(F)c1nc(-c2ccc(OCCCn3ccnc3)cc2)no1 [Example 22, 3-[4-[3-(1H-imidazol-1-yl)propoxy]phenyl]-5-penta-fluoroethyl-1,2,4-oxadiazole]		
100 µM	1 µM	100	CCCN(CCC)CCCOc1ccc(-c2noc(C)n2)cc1 [Example 25, 3-[4-(3-dipropylaminopropoxy)phenyl]-5-methyl-1,2,4-oxadiazole]		
100 µM	30 µM	3.3	Cc1nc(-c2ccc(OCc3cccnc3)cc2)no1 [Example 26, 3-(4-(3-pyridylmethyloxy)phenyl]-5-methyl-1,2,4-oxadiazole]		
50 µM	4.8 µM	10	Cc1nc(-c2ccc(OCc3ccccc3)cc2)no1 [Example 30, 3=(4-benzyloxy)phenyl-5-methyl-1,2,4-oxadiazole]		
48 µM	10 µM	4.8	CCCOc1ccc(-c2noc(CC)n2)cc1 [Example 16, 3-(4-propoxy)phenyl-5-ethyl-1,2,4-oxadiazole]		
18 µM	25 µM	0.7	CCCOc1ccc(-c2noc(C)n2)cc1 [Example 28, 3-(4-propoxy)phenyl-5-methyl-1,2,4-oxadiazole]		
